From patent publication US20200291100A1, “TREATMENT OF AGE-RELATED AND MITOCHONDRIAL DISEASES BY INHIBITION OF HIF-1 ALPHA FUNCTION” (President and Fellows of Harvard College, priority 2012, published 2020)

Tests used:
Format in all cases: cell-based, mouse
[1] = system: primary PGC-1α/β KO myotubes; assay: NMN with or without HIF stabilizing compounds in PGC-1α/β KO myotubes, qPCR of mitochondrially-encoded ETC genes; settings: HIF stabilizing compound added to NMN-treated cells; 1 mM DMOG or 10 μM DFO, 12 hours
Procedure: As a functional test of whether NMN reverses genome asynchrony by depleting cells of HIF-1α, primary PGC-1α/β KO myotubes were incubated with NMN in the presence and absence of the HIF stabilizing compounds DMOG and DFO. […] Primary myoblasts cells were isolated from WT, SIRT1 KO (Price et al., 2012) and PGC-1α/β KO (Zechner et al., 2010) mice as previously described (Price et al., 2012). WT and PGC-1α/β KO primary myoblasts were plated and allowed to differentiate into myotubes by replacing the media with low glucose DMEM supplemented with 2% horse serum (Sigma-Aldrich) for 4 days. After the differentiation the cells were infected with empty vector or flag-SIRT1 adenovirus as described before ([…] al., 2007). Media was replaced with fresh DMEM supplemented with 2% horse serum (Sigma-Aldrich) for an additional 48 hr and, after that the cells were harvested for the different assays as described. […] Quantitative RT-PCR reactions were performed using 1 μM of primers and LightCycler® 480 SYBR Green Master (Roche) on an LightCycler® 480 detection system (Roche). Calculations were performed by a comparative method (2-ΔCT) using 18S as an internal control. For mtDNA analysis, total DNA was extracted with DNeasy blood and tissue kit (Qiagen). mtDNA was amplified using primers specific for the mitochondrial cytochrome c oxidase subunit 2 (COX2) gene and normalized to genomic DNA by amplification of the ribosomal protein s18 (rps18) nuclear gene. Primers were designed using the IDT software (IDT) and the primer sequences can be found in Table 1.

[2] = system: PGC-1α/β knockout myotubes; assay: HIF stabilizing compounds in PGC-1α/β knockout myotubes with or without SIRT1 overexpression; settings: SIRT1 adenovirus; 1 mM DMOG or 10 μM DFO, 12 hours
Procedure: Next whether the ability of SIRT1 to regulate mitochondrial function independently of PGC-1α/β is mediated by HIF-1α was tested. […] Furthermore, cells expressing a mutant allele of HIF-1α that is constitutively stabilized due to the replacement of the two hydroxylated prolines with alanines (DPA) (FIG. 7A), caused genome asynchrony similar to hypoxia and treatment with DMOG (FIG. 7B).
Primary myoblasts cells were isolated from WT, SIRT1 KO (Price et al., 2012) and PGC-1α/β KO (Zechner et al., 2010) mice as previously described (Price et al., 2012). WT and PGC-1α/β KO primary myoblasts were plated and allowed to differentiate into myotubes by replacing the media with low glucose DMEM supplemented with 2% horse serum (Sigma-Aldrich) for 4 days. After the differentiation the cells were infected with empty vector or flag-SIRT1 adenovirus as described before (Gerhart-Hines et al., 2007). Media was replaced with fresh DMEM supplemented with 2% horse serum (Sigma-Aldrich) for an additional 48 hr and, after that the cells were harvested for the different assays as described. To investigate the role of HIF-1α in genome asynchrony, PGC-1α/β KO primary myotubes were treated for 12 hours with 1 mM DMOG (Sigma) or 10 μM DFO (Sigma), 24 h after infection with empty vector of flag-SIRT1 adenovirus or after 12 h treatment with […] NMN (Sigma).
RNA from skeletal muscle tissue and C2C12 cells were extracted with RNeasy mini kit (Qiagen) according to the instructions and quantified using the NanoDrop 1000 spectrophotometer (Thermo Scientific). cDNA was synthesized with the iSCRIP cDNA synthesis kit (BioRad) using 600 ng of RNA. Quantitative RT-PCR reactions were performed using 1 μM of primers and LightCycler® 480 SYBR Green Master (Roche) on an LightCycler® 480 detection system (Roche). Calculations were performed by a comparative method (2-ΔCT) using 18S as an internal control. For mtDNA analysis, total DNA was extracted with DNeasy blood and tissue kit (Qiagen). mtDNA was amplified using primers specific for the mitochondrial cytochrome c oxidase subunit 2 (COX2) gene and normalized to genomic DNA by amplification of the ribosomal protein s18 (rps18) nuclear gene. […]
Protein extracts from tissue or C2C12 cells were obtained by lysis in ice-cold lysis buffer (150 mM NaCl, 10 mM Tris HCl (pH 7.4), 1 mM EDTA, 1 mM EGTA, 1% Triton X-100, 0.5% NP-40) supplemented with a cocktail of protease and phosphatase inhibitors (Roche). Protein content was determined by the Bradford protein assay (Biorad), and 50 μg proteins were run on SDS-PAGE under reducing conditions. […] The immunostaining was detected using horseradish peroxidase-conjugated anti-rabbit or anti-mouse immunoglobulin for 1 h at room temperature.

C2C12 cells = assay: SIRT1 inhibition with EX-527 in C2C12 cells; settings: 10 μM EX-527, 12 h
Procedure: Having shown that HIF-1α stabilization was sufficient to induce genome asynchrony, it was next tested whether it was necessary. […] Knockdown of HIF-1α in C2C12 cells treated with the SIRT1 inhibitor EX-527 prevented genome asynchrony and decline in mitochondrial function, as evidenced by the maintenance of mtDNA content (FIG. 7F), mitochondrial ETC gene expression (FIG. 7G), mitochondrial membrane potential ([…]) and ATP levels (FIG. 7I).
C2C12 cell line (ATCC) was cultured in low glucose Dulbecco's modified eagle medium (DMEM) (Invitrogen) supplemented with 10% FBS (Invitrogen) and a mix of antibiotic and antimycotic (Invitrogen). To inhibit SIRT1, cells were treated the vehicle (0.001% DMSO) or 10 μM EX-527 (Tocris) for 12 h. C2C12 myoblasts were infected with an empty or SIRT1 adenovirus as described before (Gerhart-Hines et al., 2007) and the media was replaced with fresh DMEM for additional 48 h, after that the cells were treated as described before. To test the effects of hypoxia and HIFα stabilization in genome asyncrony, C2C12 myoblasts were exposed to 1% oxygen for 16 h or treated with the vehicle (0.001% DMSO) or DMOG (Cayman) for the same period of time.

PGC-1α/β KO myotubes = assay: EX-527 in PGC-1α/β KO myotubes reconstituted with WT or T177A/S538A PGC-1α, qPCR; settings: EX-527 48 h
Procedure: RNA from skeletal muscle tissue and C2C12 cells were extracted with RNeasy mini kit (Qiagen) according to the instructions and quantified using the NanoDrop 1000 spectrophotometer (Thermo Scientific). cDNA was synthesized with the iSCRIP cDNA synthesis kit (BioRad) using 600 ng of RNA. Quantitative RT-PCR reactions were performed using 1 μM of primers and LightCycler® 480 SYBR Green Master (Roche) on an LightCycler® 480 detection system (Roche). Calculations were performed by a comparative method (2-ΔCT) using 18S as an internal control. For mtDNA analysis, total DNA was extracted with DNeasy blood and tissue kit (Qiagen). mtDNA was amplified using primers specific for the mitochondrial cytochrome c oxidase subunit 2 (COX2) gene and normalized to genomic DNA by amplification of the ribosomal protein s18 (rps18) nuclear gene. Primers were designed using the IDT software (IDT) and the primer sequences can be found in Table 1.
AMPK-DN blocked the decrease in nuclear-encoded genes observed 48 h after treatment with OHT, but not the decline in mitochondrial-encoded genes (FIG. 13G). In order to determine if this AMPK affect is through PGC-1α PGC-1α/β KO myotubes were reconstituted with either a WT PGC-1α or an AMPK insensitive version of PGC-1α (PGC-1α T177A/S538A) (FIG. 20F). […]

primary myoblasts = assay: Lactate treatment of primary WT myoblasts, NAD+/NADH ratio and HIF-1α immunoblot; settings: 10 mM lactate, 24 h
Excerpt: FIGS. 21A-21N provide additional data related to the content of FIG. 14. FIG. 21A depicts HIF-1α target genes (PGK-1, Glut1, PDK1 and Vegfa) expression in gastrocnemius of WT and SIRT1 KO mice. Relative expression values were normalized to WT mice (n=5). FIG. 21B depicts hypoxia response element activity in primary myoblasts isolated from WT and SIRT1 KO mice and treated with or without DMOG. Relative luciferase activity was normalized to WT cells (n=6, *p<0.05 versus WT). FIG. 21C depicts a representative immunoblot of HIF-1a and Tubulin in PGC-1α/β KO myotubes treated with adenovirus overexpressing SIRT1 or empty vector as well as treatment with DMSO or with HIF stabilizing compound DMOG. FIG. 21D depicts NAD+/NADH ration measured in primary WT myoblasts treated with either 10 mM pyruvate, 10 mM lactate or vehicle for 24 h (n=4). […] FIG. 21J depicts mitochondrial DNA content analyzed by qPCR in control, HIF-1α DPA or HIF-2α DPA C2C12 cells treated with adenovirus overexpressing SIRT1 or empty vector. […] FIG. 21K depicts ARNT mRNA analyzed by qPCR in C2C12 cells infected with ARNT or nontargeting shRNA. […] FIG. 21L depicts mitochondrial DNA content analyzed by qPCR in C2C12 cells infected with ARNT or nontargeting shRNA. […] FIG. 21M depicts ND1, Cytb, COX1 and ATP6 mRNA analyzed by qPCR in C2C12 cells infected with ARNT or nontargeting shRNA. […] Values are expressed as mean±SEM. […]

CC(=O)N(O)CCCCCNC(=O)CCC(=O)N(O)CCCCCNC(=O)CCC(=O)N(O)CCCCCN [DFO, desferrioxamine]
effect on NMN-induced expression of mitochondrially-encoded ETC genes [1]: completely abolished
effect on induction of mitochondrial ETC genes by SIRT1 overexpression [2]: completely blocked

NC(=O)C1CCCc2c1[nH]c1ccc(Cl)cc21 (stereo not shown) [EX-527]
genome asynchrony (C2C12 cells): induced
expression of nuclear- and mitochondrial-encoded genes (PGC-1α/β KO myotubes; in the presence of WT PGC-1α): decreased both nuclear- and mitochondrial-encoded genes
expression of nuclear- and mitochondrial-encoded genes (PGC-1α/β KO myotubes; in the presence of the PGC-1α T177A/S538A mutant): only the mitochondrial-encoded genes decreased

CC(O)C(=O)O (stereo not shown) [lactate]
HIF-1α protein (immunoblot) (primary myoblasts): induces HIF-1α protein stabilization
NAD+/NADH ratio (primary myoblasts): decreasing
